target: human orexin-2 receptor (Homo sapiens (Human), UniProt O43614); test: Human orexin 2 receptor radioligand binding ([3H]-EMPA competition); details: HEK293 cells stably expressing human orexin-2 receptor; [3H]-EMPA 5 nM final; apparent Ki=IC50/(1+C/Kd), Kd=2 nM; read-out: OR 2 Ki
Sequence (O43614 whole entry): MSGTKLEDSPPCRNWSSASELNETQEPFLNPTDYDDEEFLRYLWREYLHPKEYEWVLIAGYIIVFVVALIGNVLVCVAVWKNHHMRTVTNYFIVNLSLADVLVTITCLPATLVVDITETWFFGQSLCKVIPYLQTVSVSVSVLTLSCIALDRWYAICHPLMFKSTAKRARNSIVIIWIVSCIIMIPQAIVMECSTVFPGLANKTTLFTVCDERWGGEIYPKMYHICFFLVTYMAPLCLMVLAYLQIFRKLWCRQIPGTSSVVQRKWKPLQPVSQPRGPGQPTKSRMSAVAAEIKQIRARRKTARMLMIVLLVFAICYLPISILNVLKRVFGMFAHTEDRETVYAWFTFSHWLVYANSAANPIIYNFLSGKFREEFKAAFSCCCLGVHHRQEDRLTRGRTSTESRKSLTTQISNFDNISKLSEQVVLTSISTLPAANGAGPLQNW

Row | Ki [nM] | Structure (SMILES)
1 | 1020 | COc1cccc(OC)c1C(=O)N1CC2CN(c3nc4ccccc4o3)CC2C1 (centres unmarked) [Example 192, (5-Benzooxazol-2-yl-hexahydro-pyrrolo[3,4-c]pyrrol-2-yl)-(2,6-dimethoxy-phenyl)-methanone]
2 | 1160 | Cc1ccc(-c2ccccc2C(=O)N2CC3CN(c4cnc5ccccc5n4)CC3C2)cc1 (centres unmarked) [Example 193, (4′-Methyl-biphenyl-2-yl)-(5-quinoxalin-2-yl-hexahydro-pyrrolo[3,4-c]pyrrol-2-yl)-methanone]
3 | 10000 | O=C(c1ccccc1-c1ccc(C(F)(F)F)cc1)N1CC2CN(c3cnc4ccccc4n3)CC2C1 (centres unmarked) [Example 194, (5-Quinoxalin-2-yl-hexahydro-pyrrolo[3,4-c]pyrrol-2-yl)-(4′-trifluoromethyl-biphenyl-2-yl)-methanone]
4 | 1100 | Cc1ccc(-c2ccccc2C(=O)N2CC3CN(c4nccc(-c5ccccc5)n4)CC3C2)cc1 (centres unmarked) [Example 195, (4′-Methyl-biphenyl-2-yl)-[5-(4-phenyl-pyrimidin-2-yl)-hexahydro-pyrrolo[3,4-c]pyrrol-2-yl]-methanone]
5 | 10000 | O=C(c1ccccc1-c1ccc(C(F)(F)F)cc1)N1CC2CN(c3nccc(-c4ccccc4)n3)CC2C1 (centres unmarked) [Example 196, [5-(4-Phenyl-pyrimidin-2-yl)-hexahydro-pyrrolo[3,4-c]pyrrol-2-yl]-(4′-trifluoromethyl-biphenyl-2-yl)-methanone]
6 | 1160 | COc1ccc(C(=O)N2CC3CN(c4cnc5ccccc5n4)CC3C2)c(C)c1 (centres unmarked) [Example 197, (4-Methoxy-2-methyl-phenyl)-(5-quinoxalin-2-yl-hexahydro-pyrrolo[3,4-c]pyrrol-2-yl)-methanone]
7 | 1310 | O=C(c1ccccc1-c1cccc(Cl)c1)N1CC2CN(c3nccc(-c4ccccc4)n3)CC2C1 (centres unmarked) [Example 198, (3′-Chloro-biphenyl-2-yl)-[5-(4-phenyl-pyrimidin-2-yl)-hexahydro-pyrrolo[3,4-c]pyrrol-2-yl]-methanone]
8 | 3780 | COc1ccnc(N2CC3CN(C(=O)c4ccccc4OC)CC3C2)n1 (centres unmarked) [Example 199, (2-Methoxy-phenyl)-[5-(4-methoxy-pyrimidin-2-yl)-hexahydro-pyrrolo[3,4-c]pyrrol-2-yl]-methanone]
9 | 1370 | COc1ccccc1C(=O)N1CC2CN(c3nc(C)cc(C)n3)CC2C1 (centres unmarked) [Example 201, [5-(4,6-Dimethyl-pyrimidin-2-yl)-hexahydro-pyrrolo[3,4-c]pyrrol-2-yl]-(2-methoxy-phenyl)-methanone]
10 | 5000 | Cc1cc(C)nc(N2CC3CN(C(=O)c4ccccc4C#N)CC3C2)n1 (centres unmarked) [Example 202, 2-[5-(4,6-Dimethyl-pyrimidin-2-yl)-hexahydro-pyrrolo[3,4-c]pyrrole-2-carbonyl]-benzonitrile]
11 | 5000 | Cc1cc(C)nc(N2CC3CN(C(=O)c4cnnc5ccccc45)CC3C2)n1 (centres unmarked) [Example 203, Cinnolin-4-yl-[5-(4,6-dimethyl-pyrimidin-2-yl)-hexahydro-pyrrolo[3,4-c]pyrrol-2-yl]-methanone]
12 | 50 | Cc1cc(N2CC3CN(C(=O)c4cc(F)ccc4-c4ncccn4)CC3C2)nc(C(F)(F)F)n1 (centres unmarked) [Example 204, (5-Fluoro-2-pyrimidin-2-yl-phenyl)-[5-(6-methyl-2-trifluoromethyl-pyrimidin-4-yl)-hexahydro-pyrrolo[3,4-c]pyrrol-2-yl]-methanone]
13 | 3190 | Cc1cc(C)nc(N2CC3CN(C(=O)c4ccccc4-n4ccnn4)CC3C2)n1 (centres unmarked) [Example 205, [5-(4,6-Dimethyl-pyrimidin-2-yl)-hexahydro-pyrrolo[3,4-c]pyrrol-2-yl]-(2-[1,2,3]triazol-1-yl-phenyl)-methanone]
14 | 9000 | COc1cc(OC)nc(N2CC3CN(C(=O)c4ncccc4-c4ccccc4)CC3C2)n1 (centres unmarked) [Example 207, [5-(4,6-Dimethoxy-pyrimidin-2-yl)-hexahydro-pyrrolo[3,4-c]pyrrol-2-yl]-(3-phenyl-pyridin-2-yl)-methanone]
15 | 2100 | Cc1cc(C)nc(N2CC3CN(C(=O)c4ncccc4-c4ccccc4)CC3C2)n1 (centres unmarked) [Example 208, [5-(4,6-Dimethyl-pyrimidin-2-yl)-hexahydro-pyrrolo[3,4-c]pyrrol-2-yl]-(3-phenyl-pyridin-2-yl)-methanone]
16 | 9000 | CCCc1nc(C)cc(N2CC3CN(C(=O)c4ccccc4-n4nccn4)CC3C2)n1 (centres unmarked) [Example 209, [5-(6-Methyl-2-propyl-pyrimidin-4-yl)-hexahydro-pyrrolo[3,4-c]pyrrol-2-yl]-(2-[1,2,3]triazol-2-yl-phenyl)-methanone]
17 | 3000 | Cc1nccc(N2CC3CN(C(=O)c4ccccc4-n4nccn4)CC3C2)n1 (centres unmarked) [Example 210, [5-(2-Methyl-pyrimidin-4-yl)-hexahydro-pyrrolo[3,4-c]pyrrol-2-yl]-(2-[1,2,3]triazol-2-yl-phenyl)-methanone]
18 | 44 | Cc1cncc(N2CC3CN(C(=O)c4ccccc4-n4nccn4)CC3C2)n1 (centres unmarked) [Example 211, [5-(6-Methyl-pyrazin-2-yl)-hexahydro-pyrrolo[3,4-c]pyrrol-2-yl]-(2-[1,2,3]triazol-2-yl-phenyl)-methanone]
19 | 33 | Cc1cnc(C)c(N2CC3CN(C(=O)c4cc(F)ccc4-c4ncccn4)CC3C2)n1 (centres unmarked) [Example 212, [5-(3,6-Dimethyl-pyrazin-2-yl)-hexahydro-pyrrolo[3,4-c]pyrrol-2-yl]-(5-fluoro-2-pyrimidin-2-yl-phenyl)-methanone]
20 | 56 | Cc1cnc(C)c(N2CC3CN(C(=O)c4ccccc4-c4ncn[nH]4)CC3C2)n1 (centres unmarked) [Example 213, [5-(3,6-Dimethyl-pyrazin-2-yl)-hexahydro-pyrrolo[3,4-c]pyrrol-2-yl]-[2-(2H-[1,2,4]triazol-3-yl)-phenyl]-methanone]
21 | 1230 | O=C(c1ccccc1-n1nccn1)N1CC2CN(c3cc(C(F)(F)F)nc(N4CCCC4)n3)CC2C1 (centres unmarked) [Example 214, [5-(2-Pyrrolidin-1-yl-6-trifluoromethyl-pyrimidin-4-yl)-hexahydro-pyrrolo[3,4-c]pyrrol-2-yl]-(2-[1,2,3]triazol-2-yl-phenyl)-methanone]
22 | 404 | Cc1cc(C)nc(N2CC3CN(C(=O)c4cccc(C)c4C)CC3C2)n1 (centres unmarked) [Example 219, 2-[(2,3-Dimethylphenyl)carbonyl]-5-(4,6-dimethylpyrimidin-2-yl)octahydropyrrolo[3,4-c]pyrrole]
23 | 500 | Cc1cc(C)nc(N2CC3CN(C(=O)c4cccc(F)c4C)CC3C2)n1 (centres unmarked) [Example 220, 2-(4,6-Dimethylpyrimidin-2-yl)-5-[(3-fluoro-2-methylphenyl)carbonyl]octahydropyrrolo[3,4-c]pyrrole]
24 | 2210 | Cc1cc(C)nc(N2CC3CN(C(=O)c4cc(F)ccc4C(F)(F)F)CC3C2)n1 (centres unmarked) [Example 221, 2-(4,6-Dimethylpyrimidin-2-yl)-5-{[5-fluoro-2-(trifluoromethyl)phenyl]carbonyl}octahydropyrrolo[3,4-c]pyrrole]
25 | 3620 | COc1cc(Cl)ccc1C(=O)N1CC2CN(c3nc(C)cc(C)n3)CC2C1 (centres unmarked) [Example 222, 2-[(4-Chloro-2-methoxyphenyl)carbonyl]-5-(4,6-dimethylpyrimidin-2-yl)octahydropyrrolo[3,4-c]pyrrole]
26 | 340 | Cc1cc(C)nc(N2CC3CN(C(=O)c4cc(Cl)ccc4C)CC3C2)n1 (centres unmarked) [Example 223, 2-[(5-Chloro-2-methylphenyl)carbonyl]-5-(4,6-dimethylpyrimidin-2-yl)octahydropyrrolo[3,4-c]pyrrole]

Source: US8653263B2 (Janssen Pharmaceutica, priority 2009, dated 2014)
